pIC50: −log10 of the molar value. Structures can show the parent of a compound that is named as a salt.
These molecules were tested against T1, proton pump (H+/K+-ATPase) (Sus scrofa, UniProt P19156) (assay: Measurement of inhibitory effects on proton pump (H+/K+-ATPase) activities). Conditions: hog gastric vesicles, K+-specific H+/K+-ATPase activity, Tris-HCl buffer pH 7.4, 37° C. for 40 minutes, malachite green Pi readout.
T1 construct: Gastric vesicles were prepared from hog stomach via centrifugal separation; from tissue; host or cells: hog stomach (gastric vesicles, method of Rabon et al. 1988)
T1 sequence (P19156 whole entry): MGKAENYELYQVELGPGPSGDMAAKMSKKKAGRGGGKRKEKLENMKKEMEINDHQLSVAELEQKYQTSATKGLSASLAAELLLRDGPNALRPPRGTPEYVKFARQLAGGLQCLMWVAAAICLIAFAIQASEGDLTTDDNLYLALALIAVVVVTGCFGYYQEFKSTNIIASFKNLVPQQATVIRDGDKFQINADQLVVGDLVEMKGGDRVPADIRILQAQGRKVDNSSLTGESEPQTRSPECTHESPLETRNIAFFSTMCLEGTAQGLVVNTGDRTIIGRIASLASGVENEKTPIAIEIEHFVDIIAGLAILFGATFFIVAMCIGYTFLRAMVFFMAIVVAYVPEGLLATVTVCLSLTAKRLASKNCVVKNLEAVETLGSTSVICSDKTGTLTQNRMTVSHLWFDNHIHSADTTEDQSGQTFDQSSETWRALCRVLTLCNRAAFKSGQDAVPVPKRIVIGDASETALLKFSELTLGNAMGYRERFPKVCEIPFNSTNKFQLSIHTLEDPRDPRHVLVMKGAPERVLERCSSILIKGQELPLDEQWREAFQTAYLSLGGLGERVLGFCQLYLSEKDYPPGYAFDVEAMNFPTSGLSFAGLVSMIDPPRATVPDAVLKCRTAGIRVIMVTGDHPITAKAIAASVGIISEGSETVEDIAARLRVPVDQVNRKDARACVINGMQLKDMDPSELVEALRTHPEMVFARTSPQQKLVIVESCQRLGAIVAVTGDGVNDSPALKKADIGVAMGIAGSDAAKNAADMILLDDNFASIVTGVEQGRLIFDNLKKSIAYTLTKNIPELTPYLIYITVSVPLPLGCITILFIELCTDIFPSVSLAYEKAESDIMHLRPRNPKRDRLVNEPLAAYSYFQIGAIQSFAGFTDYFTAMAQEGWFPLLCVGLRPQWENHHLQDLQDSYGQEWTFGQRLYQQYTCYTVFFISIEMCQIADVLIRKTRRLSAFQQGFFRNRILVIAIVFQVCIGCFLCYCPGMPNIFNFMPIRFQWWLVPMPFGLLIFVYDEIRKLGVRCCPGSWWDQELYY
T1 sequence (P18434 whole entry partner): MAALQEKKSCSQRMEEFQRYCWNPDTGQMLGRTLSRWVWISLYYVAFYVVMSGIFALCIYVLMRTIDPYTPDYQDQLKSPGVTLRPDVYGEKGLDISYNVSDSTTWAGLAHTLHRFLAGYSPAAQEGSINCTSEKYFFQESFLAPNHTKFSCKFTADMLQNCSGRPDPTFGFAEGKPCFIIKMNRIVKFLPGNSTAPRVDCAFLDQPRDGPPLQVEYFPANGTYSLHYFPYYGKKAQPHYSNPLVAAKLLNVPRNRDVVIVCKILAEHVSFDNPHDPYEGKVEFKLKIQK
Assay type: biochemical
Experimental: 1) Preparation of Gastric Vesicles
Gastric vesicles were prepared from hog stomach via centrifugal separation (Edd C. Rabon et al., Preparation of Gastric H^+,K^+-ATPase, Methods in enzymology, vol. 157 Academic Press Inc., (1988), pp. 649-654). The protein contents of the thus prepared gastric vesicles were quantitated by Bicinchoninic Acid (BCA) kit.
2) Measurement of Inhibitory Effects on Proton Pump (H^+/K^+-ATPase) Activities
The inhibitory effects of the compounds of the present invention against proton pump activities were measured using a 96-well plate. In this assay, the K^+-specific H^+/K^+-ATPase activities were calculated based on the difference between the H^+/K^+-ATPase activity in the presence of K^+ and that in the absence of K. In the 96-well plate, 0.5% dimethyl sulfoxide (DMSO) in buffer was added to the negative and positive control groups, and the diluted compounds of the present invention were added to the test groups. All assays were performed in a reaction volume of 100 μl at room temperature. The reaction buffer solution (60 mmol/l Tris-HCl buffer, pH 7.4) including the hog gastric vesicles was added with DMSO and the compounds at various concentrations, and then further added with 10 μl of 10 mmol/1 adenosine triphosphate Tris buffer solution (60 mmol/l Tris-HCl buffer, pH 7.4) to initiate an enzyme reaction. […] The amount of monophosphate (Pi) in the reaction was measured at 570 nm using a micro plate reader (FLUOstar Omega, BMG LABTECH). The inhibition rates (%) were determined from the activity values of control groups and those of test compounds at various concentrations, and the […] of the test compounds were calculated based on the respective inhibition value (%) using the Logistic 4-parameter function of Sigmaplot 8.0 program.
`CNCc1cn(S(=O)(=O)c2cccc(Cl)c2)c2cc(Cc3ccc(C)cc3Cl)ccc12` [Example 301, 1-(6-(2-chloro-4-methylbenzyl)-1-((3-chlorophenyl)sulfonyl)-1H-indol-3-yl)-N-methylmethanamine] showed a pIC50 of 6.10. `CN(C)C(=O)c1cn(S(=O)(=O)c2cccnc2)c2cc(Nc3ccc(OC(F)(F)F)cc3Cl)ccc12` [Example 327, 6-((2-chloro-4-(trifluoromethoxy)phenyl)amino)-N,N-dimethyl-1-(pyridin-3-ylsulfonyl)-1H-indol-3-carboxamide] was tested, and the pIC50 was 4.40. With `CNCc1cn(S(=O)(=O)c2cccc(Cl)c2)c2cc(Nc3ccc(Cl)cc3F)ccc12` [Example 150, N-(4-chloro-2-fluorophenyl)-1-((3-chlorophenyl)sulfonyl)-3-((methylamino)methyl)-1H-indol-6-amine hydrochloride] the pIC50 was 6.24. `CNCc1cn(S(=O)(=O)c2cccc(OC(F)F)c2)c2cc(Nc3ccc(OC)cc3F)ccc12` [Example 178, 1-((3-(difluoromethoxy)phenyl)sulfonyl)-N-(2-fluoro-4-methoxyphenyl)-3-((methylamino)methyl)-1H-indol-6-amine hydrochloride] was tested, and the pIC50 was 6.21. `CNCc1cn(S(=O)(=O)c2ccc(F)cc2)c2cc(Cc3ccc(C)cc3Cl)ccc12` [Example 306] gave a pIC50 of 6.17. Work on `CNCc1cn(S(=O)(=O)c2cccnc2)c2cc(-c3ccc(OC)cc3)ccc12` [Example 251, 1-(6-(4-methoxyphenyl)-1-(pyridin-3-ylsulfonyl)-1H-indol-3-yl)-N-methylmethanamine hydrochloride] yielded a pIC50 of 5.59. `CNCc1cn(S(=O)(=O)c2cccnc2)c2cc(Cc3ccc(OC(F)(F)F)cc3C)ccc12` [Example 278, N-methyl-1-(6-(2-methyl-4-(trifluoromethoxy)benzyl)-1-(pyridin-3-ylsulfonyl)-1H-indol-3-yl)methanamine hydrochloride] gave a pIC50 of 5.71. Work on `CNCc1cn(S(=O)(=O)c2cccnc2)c2cc(Nc3c(F)cc(F)cc3Cl)ccc12` [Example 83, N-(2-chloro-4,6-difluorophenyl)-3-((methylamino)methyl)-1-(pyridin-3-ylsulfonyl)-1H-indol-6-amine hydrochloride] yielded a pIC50 of 5.99. `CNCc1cn(S(=O)(=O)c2cccnc2)c2cc(Nc3ccc(F)cc3C(F)(F)F)ccc12` [Example 26, N-(4-fluoro-2-(trifluoromethyl)phenyl)-3-((methylamino)methyl)-1-(pyridin-3-ylsulfonyl)-1H-indol-6-amine hydrochloride] was tested, and the pIC50 was 6.74. Molecule `CNCc1cn(S(=O)(=O)c2cncc(Br)c2)c2cc(Nc3ccc(C)cc3F)ccc12` [Example 241, 1-((5-bromopyridin-3-yl)sulfonyl)-N-(2-fluoro-4-methylphenyl)-3-((methylamino)methyl)-1H-indol-6-amine hydrochloride] has a pIC50 of 5.66. `CNCc1cn(S(=O)(=O)c2cccnc2)c2cc(-c3cncnc3)ccc12` [Example 258, N-methyl-1-(1-(pyridin-3-ylsulfonyll)-6-(pyrimidin-5-yl)-1H-indol-3-yl)methanamine hydrochloride] gave a pIC50 of 4.70. `CNCc1cn(S(=O)(=O)c2cccc(Cl)c2)c2cc(Nc3ccc(F)cc3Cl)ccc12` [Example 149, N-(2-chloro-4-fluorophenyl)-1-((3-chlorophenyl)sulfonyl)-3-((methylamino)methyl)-1H-indol-6-amine hydrochloride] gave a pIC50 of 8.00. For `CNCc1cn(S(=O)(=O)c2ccc(OC(F)F)cc2)c2cc(Cc3ccc(OC)nc3Cl)ccc12` [Example 298, 1-(6-((2-chloro-6-methoxypyridin-3-yl)methyl)-1-((4-(difluoromethoxy)phenyl)sulfonyl)-1H-indol-3-yl)-N-methylmethanamine], the pIC50 was 5.44. Work on `CNCc1cn(S(=O)(=O)c2cccc(C(F)(F)F)c2)c2cc(Cc3ccc(C)cc3Cl)ccc12` [Example 302, 1-(6-(2-chloro-4-methylbenzyl)-1-((3-(trifluoromethyl)phenyl)sulfonyl)-1H-indol-3-yl)-N-methylmethanamine] yielded a pIC50 of 6.49. In the case of `CNCc1cn(S(=O)(=O)c2cccnc2)c2cc(Nc3cccnc3Cl)ccc12` [Example 107, N-(2-chloropyridin-3-yl)-3-((methylamino)methyl)-1-(pyridin-3-ylsulfonyl)-1H-indol-6-amine hydrochloride], the pIC50 was 6.32. `CNCc1cn(S(=O)(=O)c2cccnc2)c2cc(Oc3ccc(C(F)(F)F)cc3Cl)ccc12` [Example 311, 1-(6-(2-chloro-4-(trifluoromethyl)phenoxy)-1-(pyridin-3-ylsulfonyl)-1H-indol-3-yl)-N-methylmethanamine hydrochloride] showed a pIC50 of 5.38. `CNCc1cn(S(=O)(=O)c2cccnc2)c2cc(Nc3ccc(OC)cc3F)ccc12` [Example 49, N-(2-fluoro-4-methoxyphenyl)-3-((methylamino)methyl)-1-(pyridin-3-ylsulfonyl)-1H-indol-6-amine hydrochloride] gave a pIC50 of 6.49. `CNCc1cn(S(=O)(=O)c2cccc(OC(F)(F)F)c2)c2cc(Cc3ccc(OC)nc3Cl)ccc12` [Example 297, 1-(6-((2-chloro-6-methoxypyridin-3-yl)methyl)-1-((3-(trifluoromethoxy)phenyl)sulfonyl)-1H-indol-3-yl)-N-methylmethanamine] was tested, and the pIC50 was 5.92. `CCc1cc(C#N)ccc1Nc1ccc2c(CNC)cn(S(=O)(=O)c3cccnc3)c2c1` [Example 37, 3-ethyl-4-((3-((methylamino)methyl)-1-(pyridin-3-ylsulfonyl)-1H-indol-6-yl)amino)benzonitrile hydrochloride] was tested, and the pIC50 was 6.30. `CNCc1cn(S(=O)(=O)c2cccnc2)c2cc(Cc3ccc(OC(F)(F)F)cc3)ccc12` [Example 271, N-methyl-1-(1-(pyridin-3-ylsulfonyl)-6-(4-(trifluoromethoxy)benzyl)-1H-indol-3-yl)methanamine hydrochloride] showed a pIC50 of 5.40. Molecule `CNCc1cn(S(=O)(=O)c2ccc(OC(F)(F)F)cc2)c2cc(Nc3ccc(C)cc3F)ccc12` [Example 206, N-(2-fluoro-4-methylphenyl)-3-((methylamino)methyl)-1-((4-(trifluoromethoxy)phenyl)sulfonyl)-1H-indol-6-amine hydrochloride] has a pIC50 of 5.59. Work on `CNCc1cn(S(=O)(=O)c2cccc(OC(F)(F)F)c2)c2cc(Nc3ccc(C)c(F)c3F)ccc12` [Example 203, N-(2,3-difluoro-4-methylphenyl)-3-((methylamino)methyl)-1-((3-(trifluoromethoxy)phenyl)sulfonyl)-1H-indol-6-amine hydrochloride] yielded a pIC50 of 6.35. Molecule `CNCc1cn(S(=O)(=O)c2cccnc2)c2cc(Nc3c(F)cc(Cl)cc3F)ccc12` [Example 86, N-(4-chloro-2,6-difluorophenyl)-3-((methylamino)methyl)-1-(pyridin-3-ylsulfonyl)-1H-indol-6-amine hydrochloride] has a pIC50 of 6.19. With `CNCc1cn(S(=O)(=O)c2cccnc2)c2cc(Nc3ccccc3Cl)ccc12` [Example 4, N-(2-chlorophenyl)-3-((methylamino)methyl)-1-(pyridin-3-ylsulfonyl)-1H-indol-6-amine hydrochloride] the pIC50 was 7.22. `CNCc1cn(S(=O)(=O)c2cccnc2)c2cc(Oc3ccccc3[N+](=O)[O-])ccc12` [Example 310, N-methyl-1-(6-(2-nitrophenoxy)-1-(pyridin-3-ylsulfonyl)-1H-indol-3-yl)methanamine hydrochloride] was tested, and the pIC50 was 6.48.

From US9676714B2, “Sulfonylindole derivatives and method for preparing the same” (Daewoong Pharmaceutical Co., Ltd., priority 2013, dated 2017)
